Assay results from patent US20140228311A1, “CRYSTALLIZATION OF IDARUBICIN HYDROCHLORIDE” (HERAEUS PRECIOUS METALS GMBH & CO. KG, priority 2011, published 2014).
Counter-ions that a name gives are not always drawn.

How the values were obtained:
Type in all cases: physicochemical
[1] = Storage stability of crystalline idarubicin hydrochloride in drying chamber, content analysed by HPLC; conditions: for Purity of idarubicin hydrochloride: HPLC
Method: The crystalline idarubicin hydrochloride obtained in Example 1 was studied for its stability relative to storage at temperatures of 25° C. and 40° C. for various time periods. For this purpose, aliquots of the obtained crystalline idarubicin hydrochlorides were encapsulated individually. One half of the aliquots were stored in a drying chamber at 25° C., the other half were stored in a different drying chamber at 40° C. After the times specified below, individual samples were taken from the drying chambers and the content of idarubicin hydrochloride was analyzed by high performance liquid chromatography (HPLC).

[2] = Thermodynamic stability of the crystalline form versus amorphous form; conditions: compared with amorphous idarubicin hydrochloride
[3] = Storage of currently available idarubicin hydrochloride under typical storage conditions; conditions: hydrolysis of the sugar group, increase in 4-demethoxydaunomycinone

Row | SMILES | Stability for long storage ([1]; long storage under elevated temperatures) | Purity of idarubicin hydrochloride ([1]; storage at 25° C., 0 weeks) | Purity of idarubicin hydrochloride ([1]; storage at 25° C., 1 week) | Purity of idarubicin hydrochloride ([1]; storage at 25° C., 2 weeks) | Purity of idarubicin hydrochloride ([1]; storage at 25° C., 4 weeks) | Purity of idarubicin hydrochloride ([1]; storage at 25° C., 8 weeks) | Purity of idarubicin hydrochloride ([1]; storage at 25° C., 24 weeks) | Purity of idarubicin hydrochloride ([1]; storage at 40° C., 0 weeks) | Purity of idarubicin hydrochloride ([1]; storage at 40° C., 1 week) | Purity of idarubicin hydrochloride ([1]; storage at 40° C., 2 weeks) | Purity of idarubicin hydrochloride ([1]; storage at 40° C., 4 weeks) | Purity of idarubicin hydrochloride ([1]; storage at 40° C., 8 weeks) | Purity of idarubicin hydrochloride ([1]; storage at 40° C., 24 weeks) | Thermodynamic stability [2] | Decomposition during storage [3]
1 | CC(=O)[C@]1(O)Cc2c(O)c3c(c(O)c2[C@@H](O[C@H]2C[C@H](N)[C@H](O)[C@H](C)O2)C1)C(=O)c1ccccc1C3=O [crystalline idarubicin hydrochloride, idarubicin hydrochloride] | extraordinarily high stability | 99.95 | 99.90 | 99.87 | 99.93 | 99.84 | 99.91 | 99.95 | 99.87 | 99.87 | 99.92 | 99.83 | 99.91 | thermodynamically more stable than amorphous idarubicin hydrochloride | 
2 | CC(=O)[C@]1(O)Cc2c(O)c3c(c(O)c2[C@@H](O[C@H]2C[C@H](N)[C@H](O)[C@H](C)O2)C1)C(=O)c1ccccc1C3=O [idarubicin hydrochloride] |  |  |  |  |  |  |  |  |  |  |  |  |  |  | steady decomposition
